Laboratory results taken from US10533034B2, “Human iNKT cell activation using glycolipids” (ACADEMIA SINICA, priority 2014, dated 2020).

Columns and labels:
[1] = tested on: iNKT TCR of DN3A4-1.2 Vα14+ iNKT hybridoma cells; experiment: Binding avidity of mCD1d-loaded glycolipids to Vα14+ iNKT cells (ternary interaction); parameters: species or system mouse; conditions: complexed with mCD1d; Scatchard transformation; flow cytometry; read-out: KD of ternary complex, mCD1d-glycolipid toward iNKT TCR
Description: (3A) DN3A4-1.2 Vα14+ iNKT hybridoma cells and (3B) 7DW8-5-expanded Vα24^+ iNKT cells were incubated with various concentrations of the indicated dimeric mCD d-glycolipid and hCD1d-glycolipid complexes for 30 min at 4° C., respectively. The level of bound complexes at the indicated concentration was detected by anti-mIgG1 secondary antibody and analyzed by flow cytometry. The relationship between the binding percentage and the concentration of CD1ddi-glycolipids complex was plotted in mice (3A) and humans (3B). KD values in mice (3C) and humans (3D) were calculated from Scatchard transformation of the plot (3A) and 3B), respectively. Assay was performed in duplicates.
Briefly, murine CD1d:Ig dimer (BD Biosciences PharMingen, San Diego, Calif.) was loaded with glycolipids at a molar ratio of 1:10 or vehicle for overnight at 37° C. Murine 1.2 Vα14+ iNKT cells were incubated with various doses of dimer-glycolipid complex in buffer containing azide (0.05%) for 30 min at 4° C. These cells were then stained with anti-mouse IgG1-PE mAb (A85-1) for another 30 min at 4° C., followed by washing, fixation with 4% paraformaldehyde (PFA), and the bound mCD1d dimer complexes were detected by flow cytometry. The binding curve and linear fit of the Scatchard transformation were plotted by Graphpad Prism software.
(§1) Next, we measured the ternary interaction between CD1d-glcolipid complex and the iNKT TCR in mice and humans. Different concentrations of mCD1d^di-glycolipid and hCD1d^di-glycolipid complexes were incubated with fixed amounts of DN3A4-1.2 murine iNKT hybridoma cells and human Vα24+/Vβ11^+ iNKT cells, respectively. The level of bound complexes at the indicated concentration was detected by anti-mIgG1 secondary antibody and analyzed by flow cytometry (FIGS. 3A and 3B). The KD of the ternary complex was calculated from the Scatchard transformation of the plots in FIGS. 3A and 3B using GraphPad Prism software. […] This was consistent with the observation that higher percentages of C1-pulsed splenocytes were stained by the mCD1d-7DW8-5 complex (36.2±5.0%) than mCD1d-7DW8-5-Glc complex (17.1±0.8%) (FIG. 11).

Vα24+/Vβ11+ iNKT TCR = Vα24+/Vβ11+ iNKT TCR (Homo sapiens, UniProt A0A075B6N4+A0A0B4J240+P15813); experiment: Binding avidity of hCD1d-loaded glycolipids with Vα24+ iNKT cells (ternary interaction); conditions: in complex with hCD1d; Scatchard transformation; read-out: KD of ternary complex, hCD1d-glycolipid toward Vα24+/Vβ11+ iNKT TCR
Sequence of Vα24+/Vβ11+ iNKT TCR (P01848 whole entry): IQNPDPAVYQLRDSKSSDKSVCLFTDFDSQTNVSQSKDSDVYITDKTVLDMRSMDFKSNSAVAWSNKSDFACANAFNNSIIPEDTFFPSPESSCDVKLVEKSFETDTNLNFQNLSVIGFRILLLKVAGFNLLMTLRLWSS
Sequence of Vα24+/Vβ11+ iNKT TCR (A0A075B6N4 22-114): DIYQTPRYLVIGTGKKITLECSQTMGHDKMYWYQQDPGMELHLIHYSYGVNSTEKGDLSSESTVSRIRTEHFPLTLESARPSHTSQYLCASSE
Sequence of Vα24+/Vβ11+ iNKT TCR (P61769 21-119, further chain): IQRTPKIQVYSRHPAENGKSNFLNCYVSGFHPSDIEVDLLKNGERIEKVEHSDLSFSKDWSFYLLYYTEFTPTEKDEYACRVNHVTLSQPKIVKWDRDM
Sequence of Vα24+/Vβ11+ iNKT TCR (A0A0B4J240 22-114): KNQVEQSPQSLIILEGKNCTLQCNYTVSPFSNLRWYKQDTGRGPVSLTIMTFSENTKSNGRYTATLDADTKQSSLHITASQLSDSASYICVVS
Sequence of Vα24+/Vβ11+ iNKT TCR (P15813 20-301): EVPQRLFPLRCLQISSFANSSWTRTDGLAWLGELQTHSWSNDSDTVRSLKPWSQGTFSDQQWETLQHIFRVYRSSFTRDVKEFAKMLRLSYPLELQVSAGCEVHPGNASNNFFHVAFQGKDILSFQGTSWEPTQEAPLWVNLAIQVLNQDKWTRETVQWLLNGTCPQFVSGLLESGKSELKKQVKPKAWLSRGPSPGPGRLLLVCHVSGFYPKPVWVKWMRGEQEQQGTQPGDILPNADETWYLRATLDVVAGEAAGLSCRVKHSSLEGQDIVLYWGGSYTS
Description: as §1, with “(3A) DN3A4-1.2 Vα14+ iNKT hybridoma cells and (3B) 7DW8-5-expanded Vα24^+ iNKT cells were incubated with various concentrations of the indicated dimeric mCD d-glycolipid and hCD1d-glycolipid complexes for 30 min at 4° C., respectively. The level of bound complexes at the indicated concentration was detected by anti-mIgG1 secondary antibody and analyzed by flow cytometry. The relationship between the binding percentage and the concentration of CD1ddi-glycolipids complex was plotted in mice (3A) and humans (3B). KD values in mice (3C) and humans (3D) were calculated from Scatchard transformation of the plot (3A) and 3B), respectively. Assay was performed in duplicates. Binding avidity of human CD1d-glycolipid complexes to Vα24^+ iNKT cells expanded by 7DW8-5 at 100 ng/ml was determined as described previously.^19 Next,” for “Next,”

B6 wild type mice = experiment: Murine serum cytokine/chemokine secretion after i.v. glycolipid, wild type mice; assay type: in vivo, mouse; conditions: 1 μg/mouse i.v.; 2 and 18 hr
Description: B6 wild type mice were i.v. injected with 7DW8-5-Glc at 0.1 or 1 μg/mouse. Sera collected at 2 h and 18 h post-injection were analyzed for chemokine secretions such as IP-10 (6A), KC (6B), MCP-1 (6C), and MIP-1α (6D). These chemokines peaked at 2 hr post-injection.
B6 wild type and Jα18 knockout mice were i.v. injected with the indicated glycolipids (1 μg/mouse) or vehicle. Sera collected at 2 h and 18 h post-injection were analyzed for cytokines like IL-2 (7A), IL-6 (7B), GM-CSF (7C) and TNFα (7D) as well as chemokines such as IP-10 (7E), MIG (7F), KC (7G) and MCP-1 (7H). Only MIG peaked at 18 hr post-injection, while the others peaked at 2 hr post-injection.
All the glycolipids were dissolved in 100% DMSO at a concentration of 1-2 mg/ml. For in vivo experiments, all compounds were diluted to 10 μg/ml in saline just before injection of 100 μl diluted glycolipid or 100 μl 1% DMSO into mice. Pathogen-free C57BL/6 female mice aged 6-12 weeks were obtained from the National Laboratory Animal Center (Taipei, Taiwan). Jα18 knockout (KO) B6 mice were the gifts from Dr. Masaru Taniguchi (RIKEN Research Center for Allergy and Immunology, Yokohama, Japan). All the mice were maintained in pathogen free vivarium of Institute of Cellular and Organismic Biology, Academia Sinica (Taipei, Taiwan).
B6 WT or Jα18 KO mice were intravenously injected with vehicle or glycolipids at 0.1 or 1 μg/mouse. Serum was collected at 2 and 18 h after injection for measurement of cytokines/chemokines by Beadlyte® Mouse Cytokine kit (Millipore, N.Y.) and read by a Luminex® 200™ system (Luminex, Austin, Tex.).
Previously, 0.1 μg/mouse of 7DW8-5 was sufficient for immune stimulation,^19 but higher dosage (1 μg/mouse) was required for the glucose analog 7DW8-5-Glc to induce immune responses (FIG. 6). Thus, the biological activities of newly synthesized glycolipids were tested in B6 mice 2 and 18 hr after i.v. injection of glycolipids at 1 μg/mouse. […] As compared to GSLs with αGlc, GSLs with αGal induced higher levels of cytokines and chemokines, including IFN-γ, IL-2, IL-4, IL-6, GM-CSF, TNFα and IP-10.

B6 WT mice splenocytes = experiment: FACS analyses of WT mouse immune cells after glycolipid stimulation; assay type: in vivo; conditions: 1 μg/mouse; 72 hr
Description: B6 WT mice treated with the indicated glycolipid (1 μg/mouse) or vehicle (1% DMSO in PBS) were sacrificed at 72 hr post-injection and their splenocytes were subjected to FACS analysis. (8A) The total splenocytes, (8B) total CD11Chi cells, (8C) CD11Chi/CD80+ cells, (8D) CD11Chi/CD86+ cells, (8E) CD4^+ T cells and (8F) CD8^+ T cells.
B6 WT or Jα18 KO mice treated with specific glycolipid (1 μg/mouse) or vehicle (1% DMSO in PBS) were sacrificed at 72 hr post-injection and their spleens were harvested. After pressing spleens through 70 um strainer and lysis of erythrocytes, the nucleated cells were resuspended in PBS buffer containing azide (0.05%) and stained with antibodies recognizing the indicated cell surface antigens for 30 min at 4° C. After washing, the splenocytes were subjected to FACS analysis. The antibodies against CD3, CD4, CD8α, CD11c, CD80, and CD86 were obtained from BD Bioscience-Pharmingen.
Next, we analyzed the expansion/activation of immune cells in WT mice 3 days after glycolipid stimulation. The numbers of total T cells, CD4^+ T and CD8^+ T cells were higher in mice treated by GSLs with αGal head than those treated by GSLs with αGlc (FIGS. 2C, 8E and 8F). This was in line with the observation that more cytokines/chemokines were induced by GSLs with αGal than GSLs with αGlc in mice (FIGS. 2A, 2B and 7). […] As compared to 7DW8-5-Glc, C1-Glc not only expanded ˜1.3 fold more splenocytes and DCs (FIGS. 8A and 8B) but also activated ˜3.5 fold more CD80^+ DCs as well as ˜3 fold more CD86^+ DCs (FIGS. 8C and 8D). The increased expansion/activation of DCs may contribute to the stronger immunogenicity triggered by C1-Glc and C34-Glc as compared to 7DW8-5-Glc in vivo.

[2] = tested on: human Vα24-restricted NKT cells; experiment: Cytokine production of human iNKT cells co-cultured with autologous DCs and glycolipids (Luminex); assay type: cell-based; conditions: 1 μg/mL; 72 hrs
Description: Human Vα24-restricted NKT cells were isolated from PBMC by magnetic beads, and iNKT cells were cultured with 50 μ/mL recombinant human IL-2. Two days later, iNKT cells were co-cultured with autologous monocyte-derived DCs and different glycolipids at 1 μg/mL in 96 wells. At 72 hrs, the supernatant were collected to determine the cytokines profiles by Luminex. (A) Secretion of IFN-γ and IL-4 was similar among all glycolipids. […] One-way ANOVA was used for statistic analysis. ***P<0.001 compared with C1. #, P<0.05 compared to C34.
To compare the capacities of C1, C34, K691, K705 and K706 in activating human iNKT cells, human Vα24-restricted NKT cells were isolated from PBMC by magnetic beads, and incubated with recombinant human IL-2 ([…]). Two days later, iNKT cells were co-cultured with autologous monocyte-derived DCs loaded with different glycolipids (1 μg/mL), including C1, C34, K691, K705 and K706, in 96 wells for three days. The supernatants were collected to determine cytokines/chemokines by Luminex assay. […] (Statistical evaluation was performed using one-way ANOVA. *P<0.05 compared with C1. #, P=0.002 compared with C34, using Student's T test).

| SMILES | Kd [1] | Kd (Vα24+/Vβ11+ iNKT TCR) | induction of serum cytokines/chemokines (B6 wild type mice) | CD80+ DCs activated, fold more than 7DW8-5-Glc (B6 WT mice splenocytes) | CD86+ DCs activated, fold more than 7DW8-5-Glc (B6 WT mice splenocytes) | DCs expanded, fold more than 7DW8-5-Glc (B6 WT mice splenocytes) | splenocytes expanded, fold more than 7DW8-5-Glc (B6 WT mice splenocytes) | Ratio of IFN-γ/IL-4 compared with C1 [2] |
| --- | --- | --- | --- | --- | --- | --- | --- | --- |
| CCCCCCCCCCCCCCCCCCCCCCCCCC(=O)N[C@@H](CO[C@H]1O[C@H](CO)[C@H](O)[C@H](O)[C@H]1O)[C@H](O)[C@H](O)CCCCCCCCCCCCCC [Compound C1, α-Galactosyl ceramide, reference compound] | 1.24 ± 0.003 nM | 16.4 ± 4.2 nM |  |  |  |  |  |  |
| CCC(=O)N[C@@H](CO[C@H]1OC(CO)[C@@H](O)C(O)C1O)[C@H](O)[C@H](O)CC (some centres unmarked) [Compound C1-Glc] | 5.14 ± 0.11 nM | 8.55 ± 0.617 nM | triggered both cytokines and chemokines | ~3.5 fold | ~3 fold | ~1.3 fold | ~1.3 fold |  |
| CC[C@@H](O)[C@@H](O)[C@H](CO[C@H]1OC(CO)[C@@H](O)C(O)C1O)NC(=O)Cc1ccc(Oc2ccc(F)cc2)cc1 (some centres unmarked) [Compound C34-Glc] | 7.96 ± 1.27 nM | 0.378 ± 0.019 nM | triggered both cytokines and chemokines | ~2 fold | ~2 fold |  |  |  |
| CCCCCCCCCCCCCCC(O)C(O)C(COC1OC(CO)C(O)C(O)C1O)NC(=O)CCCCCCCCCCc1ccc(Oc2ccc(F)cc2)cc1 (centres unmarked) [Compound C34] | 0.735 ± 0.01 nM | 0.498 ± 0.005 nM |  |  |  |  |  | significantly higher |
